Read-outs that look alike come from different tables or passages of the source.
How the values were obtained:
[1] = target: T1, human type 1 glycine transporter (GlyT1) (Homo sapiens, UniProt P48067); test: Glycine uptake inhibition experiment ([3H] glycine uptake in T98G cells); format: cell-based; conditions: [3H] glycine 250 nM, read-out: IC50 (glycine uptake inhibiting activity)
T1 construct: Used in the experiment were T98G cells (glioma cells) developing a human type 1 glycine transporter (GlyT1); endogenous in cells; host or cells: T98G human glioma cells
T1 sequence (P48067 1-706): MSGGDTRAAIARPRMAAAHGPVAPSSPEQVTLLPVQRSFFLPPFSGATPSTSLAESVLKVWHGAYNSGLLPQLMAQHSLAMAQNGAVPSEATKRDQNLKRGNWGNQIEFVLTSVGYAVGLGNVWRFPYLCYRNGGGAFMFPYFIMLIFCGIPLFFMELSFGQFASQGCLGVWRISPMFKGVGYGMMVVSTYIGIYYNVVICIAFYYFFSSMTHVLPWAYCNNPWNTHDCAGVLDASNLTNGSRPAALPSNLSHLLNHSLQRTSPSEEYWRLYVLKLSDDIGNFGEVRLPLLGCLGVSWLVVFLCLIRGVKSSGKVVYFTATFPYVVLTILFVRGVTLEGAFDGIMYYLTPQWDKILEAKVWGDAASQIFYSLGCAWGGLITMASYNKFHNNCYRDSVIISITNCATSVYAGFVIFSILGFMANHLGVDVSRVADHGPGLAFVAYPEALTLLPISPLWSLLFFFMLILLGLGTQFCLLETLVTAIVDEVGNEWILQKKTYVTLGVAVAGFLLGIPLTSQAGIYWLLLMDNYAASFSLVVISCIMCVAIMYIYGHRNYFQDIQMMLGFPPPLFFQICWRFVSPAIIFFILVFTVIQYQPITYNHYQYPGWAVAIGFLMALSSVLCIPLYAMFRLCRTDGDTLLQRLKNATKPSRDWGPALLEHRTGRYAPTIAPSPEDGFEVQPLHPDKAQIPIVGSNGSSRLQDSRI
Method: A glycine uptake inhibition experiment was conducted in accordance with the method described in Neuron, 8, 927-935, 1992. Used in the experiment were T98G cells (glioma cells) developing a human type 1 glycine transporter (GlyT1). The T98G cells were seeded in a 96-well plate at a density of 2.0×10^4 cells per well and cultured overnight in a CO2 incubator. The test substance was first dissolved in a 100% DMSO solution and then dissolved in a 10 mM HEPES buffer solution (pH 7.4) supplemented with 150 mM sodium chloride, 1 mM calcium chloride, 5 mM potassium chloride, 1 mM magnesium chloride, 10 mM glucose, and 0.2% bovine serum albumin. After removing the cell culture medium, the test substance was subjected to a 10-min pretreatment. Thereafter, the test substance and [^3H] glycine (final concentration: 250 nM) were added to the cells and reaction was performed at room temperature for 15 minutes. After the end of the reaction, the extracellular fluid was aspirated with a manifold to remove the excess marker glycine present outside of the cells; thereafter, the cells were lysed with an aqueous solution of 0.5 M sodium hydroxide. The glycine content in the cells was determined by measuring the radioactivity in the cell lysate with a liquid scintillation counter. With the amount of glycine uptake in the presence of 10 μM ALX5407 being referred to as the nonspecific uptake, the amount of specific uptake was calculated by subtracting the amount of nonspecific uptake from the total amount of uptake in the absence of 10 μM ALX5407. In addition, glycine uptake inhibiting activity (IC50) was calculated from an inhibition curve for the concentration of the test substance ranging from 10^−9 to 10^−5 M.

[2] = target: T2, P-gp (Human MDR1) (Homo sapiens, UniProt P08183); test: Test for recognizability of P-gp substrate (LLC-GA5-COL 300 cells); format: in vitro ADME; conditions: 10 μM, criteria of Nature Reviews Drug Discovery (2010) 9, 215-236
T2 construct: expressed in transfected cells; host or cells: LLC-GA5-COL 300 (LLC-PK1 pig kidney epithelial cells expressing human MDR1)
T2 sequence (P08183 whole entry): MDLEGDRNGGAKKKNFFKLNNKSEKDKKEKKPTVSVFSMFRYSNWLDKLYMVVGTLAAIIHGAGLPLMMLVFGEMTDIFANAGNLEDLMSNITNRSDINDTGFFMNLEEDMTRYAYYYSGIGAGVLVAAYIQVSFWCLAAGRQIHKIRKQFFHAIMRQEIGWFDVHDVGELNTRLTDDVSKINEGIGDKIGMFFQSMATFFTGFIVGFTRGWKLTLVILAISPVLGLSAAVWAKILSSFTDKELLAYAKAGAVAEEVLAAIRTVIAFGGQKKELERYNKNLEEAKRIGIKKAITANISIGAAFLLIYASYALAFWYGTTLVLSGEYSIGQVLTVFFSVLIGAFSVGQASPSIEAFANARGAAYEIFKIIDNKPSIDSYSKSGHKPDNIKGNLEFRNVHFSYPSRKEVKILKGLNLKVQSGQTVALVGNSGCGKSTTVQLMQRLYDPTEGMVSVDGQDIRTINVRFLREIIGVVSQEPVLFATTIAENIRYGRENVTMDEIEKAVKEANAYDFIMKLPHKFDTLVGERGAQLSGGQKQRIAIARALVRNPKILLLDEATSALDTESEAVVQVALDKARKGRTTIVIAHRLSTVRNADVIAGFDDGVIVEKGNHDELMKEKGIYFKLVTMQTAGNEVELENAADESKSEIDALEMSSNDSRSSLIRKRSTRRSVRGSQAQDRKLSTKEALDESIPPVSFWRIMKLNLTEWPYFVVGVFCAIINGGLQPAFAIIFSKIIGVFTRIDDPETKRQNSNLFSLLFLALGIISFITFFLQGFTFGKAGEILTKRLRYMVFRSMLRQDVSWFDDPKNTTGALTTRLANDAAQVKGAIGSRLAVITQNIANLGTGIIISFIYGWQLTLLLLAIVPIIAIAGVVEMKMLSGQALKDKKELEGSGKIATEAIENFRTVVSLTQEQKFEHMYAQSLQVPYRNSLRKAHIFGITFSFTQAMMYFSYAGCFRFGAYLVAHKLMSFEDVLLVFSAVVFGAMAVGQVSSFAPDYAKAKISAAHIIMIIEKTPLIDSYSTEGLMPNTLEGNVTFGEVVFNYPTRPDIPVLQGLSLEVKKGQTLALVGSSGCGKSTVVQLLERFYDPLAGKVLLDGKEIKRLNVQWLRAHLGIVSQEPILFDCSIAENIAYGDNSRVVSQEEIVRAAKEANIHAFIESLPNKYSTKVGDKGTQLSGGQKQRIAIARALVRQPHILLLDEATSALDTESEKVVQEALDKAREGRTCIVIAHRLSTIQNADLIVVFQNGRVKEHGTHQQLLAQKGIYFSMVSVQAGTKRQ
Excerpt: In order that drugs acting on the central nervous system will develop their efficacy, their passage from the blood to the brain is generally important. While various efflux transporters are present at the blood-brain barrier to control this passage of drugs, P-glylcoprotein (P-gp) is a typical example and inhibits the passage to the brain of any drugs that serve as the substrate for P-gp. Therefore, in the development of pharmaceuticals, nonrecognizability of a candidate drug as the substrate for P-gp is the key to its passage to the brain.
A test for recognizability of P-gp substrate was performed in accordance with a modified version of the methods described in J. Pharmacol. Exp. Ther. (1992) Vol. 263, No. 2, 840-845 and J. Biol. Chem. (1992) Vol. 267, No. 34, 24248-24252. […] A solution of an assay compound (a DMSO solution of the compound as diluted with HBSS and adjusted to a final concentration of 10 μM) was added to the donor side of the LLC-GA5-COL 300 cells and a prescribed amount of HBSS was collected from the acceptor side at given time intervals and the concentration of the assay compound in the collected sample was measured by LC-MS/MS. […]

[3] = Membrane permeability experiment (PAMPA Evolution); format: in vitro ADME; conditions: artificial lipid GIT-0, pH 4.0, 5.0, 6.2 and 7.4, marker metoprolol
Method: In the development of pharmaceuticals, membrane permeability is an important factor to consider from the viewpoint of relationship with the bodily absorption of a medicament to be administered orally. Compounds having high membrane permeability are expected to feature satisfactory absorption by the intestinal tract (see Pharmaceutical Research (2002) Vol. 19, No. 7, 921-925.)
A membrane permeability test was conducted using PAMPA Evolution™ (pION INC.) in accordance with a modified version of the recommended protocol of pION INC. To be more specific, solutions of an assay compound (i.e., a DMSO solution of the compound as diluted by being added to system solutions that had been adjusted to prescribed pHs (4.0, 5.0, 6.2, and 7.4)) were prepared and added to the lower compartment (donor) of a sandwich plate having a lipid bilayer membrane formed of an artificial lipid (GIT-0). An acceptor sink buffer was added to the upper compartment (acceptor) and after the lapse of a prescribed period, the cumulative permeation of the compound was measured by performing UV spectroscopy on the solutions in the donor and acceptor, and the membrane permeability coefficient Pe (×10^−6 cm/sec) was calculated to assay the membrane permeability of the compound.

| IC50 ([1]; 15 min, room temperature) | IC50 [1] | SMILES | recognizability as P-gp substrate (efflux ratio basal→apical / apical→basal) [2] | membrane permeability coefficient Pe compared with metoprolol [3] |
| --- | --- | --- | --- | --- |
| 0.0074 µM | < 0.1 µM | Cn1cnc(C(=O)N(Cc2ccc(F)c(OC(F)(F)F)c2)C2CCOCC2)n1 [Compound 49] | not recognizable as the substrate for P-gp |  |
|  | < 0.1 µM | Cn1cnc(C(=O)N(Cc2ccc(F)c(-c3cccc(Oc4ccccc4)c3)c2)C2CCOCC2)n1 [Compound 96] |  | higher Pe values than the high permeability marker compound metoprolol |
| 0.009 µM | < 0.1 µM | Cn1cnc(C(=O)N(Cc2ccc(F)c(-c3cccc(CCO)c3)c2)C2CCOCC2)c1 [Compound 99] |  | higher Pe values than the high permeability marker compound metoprolol |
| 0.006 µM | < 0.1 µM | Cn1cnc(C(=O)N(Cc2ccc(F)c(-c3ccc(OC(F)(F)F)cc3)c2)C2CCOCC2)c1 [Compound 100] |  | higher Pe values than the high permeability marker compound metoprolol |
| 0.0082 µM | < 0.1 µM | Cn1cnc(C(=O)N(Cc2ccc(F)c(-c3ccc(F)cc3)c2)C2CCOCC2)c1 [Compound 103] |  | higher Pe values than the high permeability marker compound metoprolol |
| 0.0317 µM | < 0.1 µM | Cn1cnc(C(=O)N(C2CCOCC2)C(CO)Cc2cccc(OC(F)(F)F)c2)c1 (centres unmarked) [Compound 109] |  | higher Pe values than the high permeability marker compound metoprolol |

— patent publication US8623898B2, “Glycine transporter inhibiting substances” (Taisho Pharmaceutical Co., Ltd., priority 2009, dated 2014)
